We go through one compound from US20080214844A1, “Icaritin and desmethylicaritin as anti-cancer agents” (priority 2007, published 2008).

A word on the IC50: it is the concentration needed to halve the response being measured. A high value points to a need for much substance. For orientation: inhibition means how much of the control response was suppressed. Low values mean a response near the control, high ones a response far below the control. In general, EC50 refers to the concentration giving half of the maximal effect.

The subject of test [1] is 786-O. The test is described as follows: MTT cell viability assay, 786-O. Type of test: cell-based, human. Conditions: Homo sapiens, 786-0, 72 h, Kidney, 3 days culture. As to the method:
(§1) 26 cancer cell lines were grown in normal growth medium in the presence of different concentrations Icaritin or Desmethylicaritin. After culture for 3 days, the cell viability was then measured by an MTT assay. […] Some EC50s were lower than 10 uM for these two compounds. […] Whereas, normal human mammary gland epithelial cells (MCF10A) were not sensitive to Icaritin and Desmethylicaritin. These cells grew well when treated with these two compounds at a concentration of 50 uM.
(In general: Tetrazolium dyes change colour on reduction, which living cells bring about.)

The test system of test [2] is LNCaP prostate cancer cells. The test is described as follows: Lipogenesis: incorporation of 2-14C-labeled acetate into cellular lipids. Conditions: Homo sapiens, 5 h, 2-14C-acetate incorporation. The format is cell-based. As to the method: To investigate the ability of Icaritin and Desmethylicaritin to inhibit lipogenesis, LNCaP prostate cancer cells were treated with different concentrations of Icaritin and Desmethylicaritin for 5 h, and incorporation of 2-^14C-labeled acetate into cellular lipids was quantitated. Both of Icaritin and Desmethylicaritin inhibited lipogenesis by more than 50% at a concentration of 0.5 uM. Higher concentrations further reduced lipogenesis in a dose-dependent way. A further decline was observed after 24 h of exposure.

Test [3] concerns estrogen receptor. Conditions: mediated by the estrogen receptor; cited from earlier work.
Test [4] has as its system A549. Briefly: MTT cell viability assay, A549. The format is cell-based, human. The conditions noted are these: Homo sapiens, 72 h, A549, Lung, 3 days culture. As to the method: as §1
Test [5] has as its system NCI-H23. Briefly: MTT cell viability assay, NCI-H23. The format is cell-based, human. Conditions: Homo sapiens, 72 h, NCI-H23, Lung, 3 days culture. As to the method:
as §1

Test [6] deals with MCF-10a. The test is described as follows: MTT cell viability assay, MCF-10a normal breast epithelial cells. Type of test: cell-based, human. The protocol:
as §1

For test [7], the system named is CCL-225. Briefly: MTT cell viability assay, CCL-225. Type of test: cell-based, human. The conditions noted are these: Homo sapiens, 72 h, CCL-225, Colon, 3 days culture. As to the method: as §1
Test [8] has as its system U-251. The test is described as follows: MTT cell viability assay, U-251. The format is cell-based, human. Conditions: Homo sapiens, 72 h, U-251, Glioblastoma, 3 days culture. As to the method:
as §1

Test [9] relates to LoVo. Briefly: MTT cell viability assay, LoVo. Type of test: cell-based, human. Conditions: Homo sapiens, 72 h, Colon, 3 days culture. As to the method:
as §1

The test system of test [10] is LNCaP cells and MDA-MB-231 cells. Briefly: Synthesis of lipid classes in cancer cells. The format is cell-based, human. As to the method: Icaritin and Desmethylicaritin decrease Lipogenesis in Prostate and Breast Cancer cells via inhibition of fatty acid synthase (FAS) Activity. Protein extracts from LNCaP cells, which had been ^14C-labeled with malonyl-CoA, were pretreated with these two compounds. A concentration of 0.5 μM Icaritin or Desmethylicaritin reduced the in vitro enzymatic FAS activity to less than 50%. […] Consistent with their FAS inhibitory effect, inhibition of lipogenesis by Icaritin and Desmethylicaritin affected the synthesis of phospholipids (including phosphatidylcholine, phosphatidylethanolamine, phosphatidylinositol, phosphatidylserine, and sphingomyelin) and of triglycerides in LNCaP cells and MDA-MB-231 cells. […] Cholesterol synthesis, however, accounts for less than 10% of the total lipogenic activity in LNCaP and MDA-MB-231 cancer cells, whereas ˜75 and 15% of the lipogenic activity in these cells represents phospholipid and triglyceride synthesis, respectively.

In test [11] the test system is HMVEC tube formation. The test is described as follows: HMVEC tube formation on Matrigel. Type of test: cell-based, human. Conditions: 18 hours. As to the method: Endothelial cell tube formation in Matrigel is one measure of angiogenesis in vitro. The role of Icaritin in angiogenesis was assessed by determining the inhibition of HMVEC tube formation on Matrigel matrix plated onto 96-well plates. The HMVEC tube formation assay was performed as described previously. Briefly, 96-well plates were coated with 90 μL Matrigel (10 mg/mL, Collaborative Research) and incubated at 37° C. for 30 minutes to promote gelling. HMVECs (10,000 cells/sample) were resuspended in reduced growth medium (serum concentration 1% and 5 units/mL heparin) and added to each well with the indicated reagents in a final volume of 100 μL with different concentration of Icaritin. After 18 hours, the plates were fixed with Diff-Quik and at least four randomly selected fields per experimental condition were digitally recorded under bright-field illumination using a 10× objective. The mean additive length of all of the cords present in each optical field was measured using IPLab software and compared with controls using the Student's unpaired t test.

Test [12] relates to MDA-MB-231. Briefly: MTT cell viability assay, MDA-MB-231. Type of test: cell-based, human. The conditions noted are these: Homo sapiens, 72 h, MDA-MB-231, Breast, 3 days culture. The protocol:
as §1

The subject of test [13] is HCT-116. The test is described as follows: MTT cell viability assay, HCT-116. The format is cell-based, human. The conditions noted are these: Homo sapiens, 72 h, HCT-116, Colon, 3 days culture. As to the method: as §1
In test [14] the test system is AU-565. The test is described as follows: MTT cell viability assay, AU-565. Type of test: cell-based, human. Conditions: Homo sapiens, AU565, 72 h, AU-565, Breast, 3 days culture. As to the method:
as §1

For the compound `COc1ccc(-c2oc3c(CC=C(C)C)c(O)cc(O)c3c(=O)c2O)cc1` [Icaritin], the IC50 is 10.5 µM in test [1]; 10.6 µM in [4]; 6 µM in test [5]; more than 50 µM in [6] (Homo sapiens, 72 h, MCF-10a, Normal breast epithelial cells, 3 days culture, MTT); 8.8 µM in test [7]; 7.1 µM in [8]. Moreover, the IC50 in [9] was found to be 10.3 µM; in test [12], 5.3 µM; in [13], 6.4 µM; in test [14], 7.9 µM. In addition, the inhibition at 0.5 µM in test [2] is more than 50%. Also, the estrogenic effect result in test [3] is given as “week phytoestrogens”. Besides, the “sensitivity of normal human mammary gland epithelial cells (MCF10A)” value in [6] (cells grew well at 50 uM) is listed as “not sensitive”. For the same compound, the synthesis of cholesterol entry in [10] (LNCaP and MDA-MB-231 cells) is listed as “decreased”. In addition, the “synthesis of phospholipids and of triglycerides” value in [10] (LNCaP cells and MDA-MB-231 cells) is “affected”. In addition, the HMVEC tube formation entry in test [11] (10 uM) is “completely inhibited”. In addition, the EC50 in test [11] (Homo sapiens, HMVEC, read-out: EC50 to inhibit HMVEC tube formation) was found to be 5.8 µM.
